Measured values reported in patent US20100266691A1, “Agents and Methods to Stimulate Bone Healing” (BATTELLE MEMORIAL INSTITUTE, priority 2009, published 2010).

Assays:
[1] = system: Mouse MC3T3-E1 pre-osteoblastic cells; test: pre-osteoblast chemotaxis trans-well assay; assay type: cell-based; settings: for chemotactic effect of LPA in the presence of inhibitor: inhibitor added together with LPA
Method: Mouse MC3T3-E1 pre-osteoblastic cells were seeded into the upper wells of opaque trans-well chambers that had 8.0-micron pores. LPA was added to the growth medium in the lower chamber. The number of cells that migrated through the pores and attached to the underside of the microporous membrane served as a measure of chemotaxis (chemically directed cell migration). Cells were fluorescently labeled with calcein to allow visualization on the undersides of the opaque chambers. Utilizing this assay it was determined that LPA elicited a 6.5 fold increase in pre-osteoblast when compared to cells under control conditions (growth medium in the absence of LPA).

MC3T3-E1 cells = test: global gene expression profiling (Affymetrix mouse whole genome microarrays); assay type: cell-based; settings: LPA 1.0 μM
Method: LPA also modulates the expression of a large set of pre-osteoblast genes linked to development (FIG. 2). MC3T3-E1 cells were grown in the presence or absence of a physiological level of LPA (1.0 μM). After growth of the cells, total RNA was isolated for use in global gene expression profiling. Gene expression was measured utilizing Affymetrix mouse whole genome microarrays. Data were analyzed using a suite of bioinformatics software. […] As shown, genes involved in cell development are the most statistically significant group affected by LPA.

[2] = system: Mouse MLO-Y4 osteocyte-like cells; test: osteocyte dendrite outgrowth trans-well assay; assay type: cell-based
Method: Data are normalized to untreated control cells.
Among the effects of LPA on pre-osteoblasts is the induction of membrane extensions that resemble osteocyte dendrites. An assay was developed to study the ability of LPA to stimulate the outgrowth of dendritic processes from osteocytes in vitro, FIG. 3. Mouse MLO-Y4 osteocyte-like cells were seeded in the upper wells of opaque trans-well chambers having 1.0-micron pores which prevent the passage of whole cells but allow penetration by membrane extensions. Cells were fluorescently labeled with calcein to allow visualization of dendrites that were extended onto the undersides of the opaque chambers. It was determined that the presence of LPA in the lower chamber lead to a 7-fold increase in osteocyte dendrite outgrowth.
It is postulated that LPA enhances dendrite outgrowth in vivo, which can re-establish the osteocyte mechanosensory network during the regeneration of damaged bone.

[3] = system: drill-hole defects in the cortex of rat femurs; test: rat femur drill-hole defect healing with PLGA implants (microCT); assay type: in vivo; settings: PLGA+12.5 μg LPA vs PLGA+2.0 μg rhBMP2; six weeks post-treatment
Source text: Defect regions (arrows) are enlarged on the right; dotted lines depict the original defect boarders.
The inventor has shown, using rat models, that LPA enhances skeletal regeneration in vivo. The bone growth stimulatory effects of LPA were compared to those of bone morphogenetic protein 2 (BMP-2), which is an FDA approved osteoinductive additive to bone implants. Referring to FIG. 4, drill-hole defects (3-mm diameter) were introduced into the cortex of rat femurs. Implants were fabricated utilizing poly(DL-lactic-co-glycolic acid) copolymers) (PLGA). The femurs were then implanted with either LPA or a therapeutic amount (2 μg) of BMP-2 and were compared to a non-treated control. Bone healing was measured as the rate of closure of the defect as visualized in living animals by micro-computed tomography (microTC). Implants were designed as follows: PLGA alone; PLGA+12.5 μg LPA; PLGA+2.0 μg rhBMP2.
One preferred combination of the invention is LPA and BMP-2. Utilizing a rat model, the affects of LPA and LPA with BMP-2 were studied. Rat femurs were drilled to introduce a defect as set forth for FIG. 4. Implants were prepared as described above with the addition of an implant having PLGA+2.0 μg rhBMP2+12.5 μg LPA. Each corresponding drill drill-hole was implanted with: A) nothing (control); B) LPA; C) BMP-2 or D) LPA+BMP-2.

Row | Compound | chemotactic effect of LPA in the presence of inhibitor [1] | increase in pre-osteoblast chemotaxis compared to cells under control conditions ([1]; LPA in lower chamber, 8.0-micron pores, control = growth medium in the absence of LPA) [fold] | number of genes regulated in LPA-treated cells (MC3T3-E1 cells) [genes] | increase in osteocyte dendrite outgrowth ([2]; LPA in lower chamber, 1.0-micron pores, normalized to untreated control cells) [fold] | stimulation of dendritogenesis ([2]; each concentration tested) | bone healing (closure of the defect) compared with BMP-2 [3]
1 | Cc1noc(-c2ccc(CSCCC(=O)O)cc2)c1NC(=O)OC(C)c1ccccc1Cl (stereo not shown) [Ki16425] | decreased chemotactic effect | – | – | – | – | –
2 | CCCCCCCC/C=C\CCCCCCCC(=O)OC[C@@H](O)COP(=O)([O-])O.[Na+] [LPA, lysophosphatidic acid] | – | 6.5 | 513 | 7 | significantly stimulated dendritogenesis | stimulatory properties of LPA exceed those of BMP-2
3 | pertussis toxin | decreased chemotactic effect | – | – | – | – | –
